Assay results taken from ChEMBL document CHEMBL3991601, “The target landscape of clinical kinase drugs” (Science, 2017).
The source made the active and inactive calls.

Key:
[1] = molecular target: AP2-associated protein kinase 1 (Homo sapiens, UniProt Q2M2I8)
[2] = molecular target: T1, Peroxisomal acyl-coenzyme A oxidase 1 (Homo sapiens, UniProt Q15067)
T1 sequence (Q15067 whole entry): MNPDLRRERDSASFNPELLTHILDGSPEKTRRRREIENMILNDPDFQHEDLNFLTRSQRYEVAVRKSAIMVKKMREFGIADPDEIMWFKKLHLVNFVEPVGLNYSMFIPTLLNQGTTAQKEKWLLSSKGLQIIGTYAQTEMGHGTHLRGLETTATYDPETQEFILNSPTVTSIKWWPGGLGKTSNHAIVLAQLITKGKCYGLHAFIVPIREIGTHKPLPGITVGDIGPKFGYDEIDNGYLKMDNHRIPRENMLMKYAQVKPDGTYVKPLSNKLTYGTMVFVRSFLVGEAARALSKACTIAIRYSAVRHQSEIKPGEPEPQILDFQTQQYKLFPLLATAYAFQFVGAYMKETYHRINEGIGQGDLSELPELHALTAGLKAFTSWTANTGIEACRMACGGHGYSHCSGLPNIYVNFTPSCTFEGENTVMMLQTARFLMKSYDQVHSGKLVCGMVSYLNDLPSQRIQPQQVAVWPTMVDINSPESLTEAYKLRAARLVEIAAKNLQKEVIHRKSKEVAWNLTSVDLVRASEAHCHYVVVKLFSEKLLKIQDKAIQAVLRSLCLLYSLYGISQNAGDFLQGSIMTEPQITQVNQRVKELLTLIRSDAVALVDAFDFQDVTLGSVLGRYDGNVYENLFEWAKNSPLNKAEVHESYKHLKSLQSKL

[3] = molecular target: Cyclin-dependent kinase 12 (Homo sapiens, UniProt Q9NYV4)
Chain of Cyclin-dependent kinase 12 (Q9NYV4 whole entry): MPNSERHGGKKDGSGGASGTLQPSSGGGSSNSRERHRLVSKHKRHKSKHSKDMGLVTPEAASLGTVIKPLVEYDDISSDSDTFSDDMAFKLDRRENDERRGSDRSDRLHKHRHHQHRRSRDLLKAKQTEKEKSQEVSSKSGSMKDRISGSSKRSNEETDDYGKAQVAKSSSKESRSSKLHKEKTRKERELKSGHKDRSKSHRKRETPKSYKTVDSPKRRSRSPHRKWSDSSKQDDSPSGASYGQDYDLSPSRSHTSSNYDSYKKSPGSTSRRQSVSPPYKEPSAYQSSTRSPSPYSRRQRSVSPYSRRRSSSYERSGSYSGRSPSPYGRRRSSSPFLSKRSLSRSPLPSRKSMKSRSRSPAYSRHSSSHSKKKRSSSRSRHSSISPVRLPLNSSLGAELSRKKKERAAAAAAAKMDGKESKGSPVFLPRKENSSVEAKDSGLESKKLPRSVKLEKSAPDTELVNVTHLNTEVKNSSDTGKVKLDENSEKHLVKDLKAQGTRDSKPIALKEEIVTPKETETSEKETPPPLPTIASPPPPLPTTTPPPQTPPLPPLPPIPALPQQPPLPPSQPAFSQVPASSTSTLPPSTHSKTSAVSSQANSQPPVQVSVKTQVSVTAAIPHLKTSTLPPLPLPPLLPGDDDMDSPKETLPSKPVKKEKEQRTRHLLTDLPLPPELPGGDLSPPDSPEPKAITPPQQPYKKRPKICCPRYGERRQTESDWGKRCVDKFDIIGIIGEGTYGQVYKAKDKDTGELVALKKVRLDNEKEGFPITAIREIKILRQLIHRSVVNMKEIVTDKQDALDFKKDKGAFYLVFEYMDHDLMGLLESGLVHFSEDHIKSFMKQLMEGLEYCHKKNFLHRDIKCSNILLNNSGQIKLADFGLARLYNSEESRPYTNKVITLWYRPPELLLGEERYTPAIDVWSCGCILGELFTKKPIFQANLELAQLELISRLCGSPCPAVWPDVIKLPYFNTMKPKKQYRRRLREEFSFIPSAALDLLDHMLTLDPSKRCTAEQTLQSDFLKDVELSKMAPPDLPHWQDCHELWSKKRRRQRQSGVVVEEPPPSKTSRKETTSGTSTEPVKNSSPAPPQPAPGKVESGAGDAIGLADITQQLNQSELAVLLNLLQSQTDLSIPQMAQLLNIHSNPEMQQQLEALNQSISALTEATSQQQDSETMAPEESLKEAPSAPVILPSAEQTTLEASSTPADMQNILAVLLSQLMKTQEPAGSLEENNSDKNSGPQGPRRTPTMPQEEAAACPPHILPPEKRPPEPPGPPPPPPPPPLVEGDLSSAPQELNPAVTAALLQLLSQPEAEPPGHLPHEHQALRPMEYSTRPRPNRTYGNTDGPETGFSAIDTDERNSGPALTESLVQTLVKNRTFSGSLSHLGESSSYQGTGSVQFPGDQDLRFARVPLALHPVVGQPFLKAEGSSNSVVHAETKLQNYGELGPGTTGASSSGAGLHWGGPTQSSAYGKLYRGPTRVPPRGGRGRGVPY

[4] = molecular target: ATP-dependent RNA helicase DDX3X (Homo sapiens, UniProt O00571)
Chain of ATP-dependent RNA helicase DDX3X (O00571 whole entry): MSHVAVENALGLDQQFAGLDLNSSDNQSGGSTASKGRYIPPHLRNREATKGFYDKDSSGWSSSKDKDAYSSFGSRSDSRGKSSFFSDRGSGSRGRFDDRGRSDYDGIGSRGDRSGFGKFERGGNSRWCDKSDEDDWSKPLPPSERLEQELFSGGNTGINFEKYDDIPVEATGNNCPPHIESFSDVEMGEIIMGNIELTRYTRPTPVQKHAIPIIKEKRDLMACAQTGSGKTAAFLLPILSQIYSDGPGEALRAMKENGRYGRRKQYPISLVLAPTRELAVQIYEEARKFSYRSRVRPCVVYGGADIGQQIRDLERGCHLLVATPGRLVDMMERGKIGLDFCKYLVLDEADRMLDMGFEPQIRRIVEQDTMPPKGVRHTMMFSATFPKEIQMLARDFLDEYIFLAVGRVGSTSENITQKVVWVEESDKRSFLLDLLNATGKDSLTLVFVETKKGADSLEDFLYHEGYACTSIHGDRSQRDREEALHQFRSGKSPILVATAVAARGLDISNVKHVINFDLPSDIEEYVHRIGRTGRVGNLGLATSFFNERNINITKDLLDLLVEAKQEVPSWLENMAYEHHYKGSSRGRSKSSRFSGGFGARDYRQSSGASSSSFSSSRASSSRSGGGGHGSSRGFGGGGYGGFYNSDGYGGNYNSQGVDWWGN

[5] = molecular target: T2, Phenylalanine--tRNA ligase beta subunit (Homo sapiens, UniProt Q9NSD9)
T2 sequence (Q9NSD9 whole entry): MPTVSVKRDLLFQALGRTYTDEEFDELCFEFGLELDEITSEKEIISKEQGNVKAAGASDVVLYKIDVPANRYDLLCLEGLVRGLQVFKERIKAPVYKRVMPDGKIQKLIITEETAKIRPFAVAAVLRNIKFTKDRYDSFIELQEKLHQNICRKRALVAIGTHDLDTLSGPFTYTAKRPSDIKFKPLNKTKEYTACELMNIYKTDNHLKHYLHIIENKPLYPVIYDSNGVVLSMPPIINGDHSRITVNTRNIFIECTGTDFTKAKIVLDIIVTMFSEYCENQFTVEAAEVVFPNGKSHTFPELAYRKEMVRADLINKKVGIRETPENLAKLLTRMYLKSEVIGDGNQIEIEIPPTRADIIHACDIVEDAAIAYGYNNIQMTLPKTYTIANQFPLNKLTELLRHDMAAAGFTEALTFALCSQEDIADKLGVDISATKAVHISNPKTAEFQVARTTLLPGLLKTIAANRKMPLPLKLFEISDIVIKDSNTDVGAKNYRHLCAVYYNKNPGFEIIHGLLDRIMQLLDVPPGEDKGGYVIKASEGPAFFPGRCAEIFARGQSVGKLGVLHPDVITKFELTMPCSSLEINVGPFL

[6] = molecular target: T3, Serine/threonine-protein kinase Nek2 (Homo sapiens, UniProt P51955)
T3 sequence (P51955 whole entry): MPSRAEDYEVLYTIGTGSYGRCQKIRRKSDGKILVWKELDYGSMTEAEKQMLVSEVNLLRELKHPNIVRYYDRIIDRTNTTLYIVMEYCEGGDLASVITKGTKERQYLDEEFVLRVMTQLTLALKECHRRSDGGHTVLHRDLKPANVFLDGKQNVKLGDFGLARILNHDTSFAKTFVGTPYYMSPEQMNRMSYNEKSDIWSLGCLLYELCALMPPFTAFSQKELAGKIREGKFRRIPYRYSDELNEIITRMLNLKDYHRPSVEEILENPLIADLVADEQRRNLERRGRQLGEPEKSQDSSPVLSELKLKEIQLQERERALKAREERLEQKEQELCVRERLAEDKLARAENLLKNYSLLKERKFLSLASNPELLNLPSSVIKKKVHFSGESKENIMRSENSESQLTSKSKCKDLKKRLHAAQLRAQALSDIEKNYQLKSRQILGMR

[7] = molecular target: Ribosomal protein S6 kinase alpha-1 (Homo sapiens, UniProt Q15418)
Chain of Ribosomal protein S6 kinase alpha-1 (Q15418 whole entry): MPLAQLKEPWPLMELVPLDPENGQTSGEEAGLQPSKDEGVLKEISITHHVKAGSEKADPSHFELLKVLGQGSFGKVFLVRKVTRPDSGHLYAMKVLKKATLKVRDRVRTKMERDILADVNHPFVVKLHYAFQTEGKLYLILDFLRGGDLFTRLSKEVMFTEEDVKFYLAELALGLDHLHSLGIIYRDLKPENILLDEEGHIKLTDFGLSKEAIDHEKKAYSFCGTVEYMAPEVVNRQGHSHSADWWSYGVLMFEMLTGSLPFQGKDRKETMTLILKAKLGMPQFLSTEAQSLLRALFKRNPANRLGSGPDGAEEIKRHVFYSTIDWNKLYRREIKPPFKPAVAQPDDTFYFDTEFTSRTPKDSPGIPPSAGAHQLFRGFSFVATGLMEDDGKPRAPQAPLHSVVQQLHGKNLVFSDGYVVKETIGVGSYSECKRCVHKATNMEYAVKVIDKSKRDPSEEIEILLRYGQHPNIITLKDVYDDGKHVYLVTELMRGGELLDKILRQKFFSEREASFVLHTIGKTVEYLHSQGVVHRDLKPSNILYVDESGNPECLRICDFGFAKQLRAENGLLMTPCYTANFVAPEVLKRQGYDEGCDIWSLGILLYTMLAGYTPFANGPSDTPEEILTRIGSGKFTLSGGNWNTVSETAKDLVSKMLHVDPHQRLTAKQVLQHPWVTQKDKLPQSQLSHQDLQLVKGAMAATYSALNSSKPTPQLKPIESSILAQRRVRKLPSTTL

Aurora kinase A = molecular target: T4, Aurora kinase A (Homo sapiens, UniProt O14965)
T4 sequence (O14965 whole entry): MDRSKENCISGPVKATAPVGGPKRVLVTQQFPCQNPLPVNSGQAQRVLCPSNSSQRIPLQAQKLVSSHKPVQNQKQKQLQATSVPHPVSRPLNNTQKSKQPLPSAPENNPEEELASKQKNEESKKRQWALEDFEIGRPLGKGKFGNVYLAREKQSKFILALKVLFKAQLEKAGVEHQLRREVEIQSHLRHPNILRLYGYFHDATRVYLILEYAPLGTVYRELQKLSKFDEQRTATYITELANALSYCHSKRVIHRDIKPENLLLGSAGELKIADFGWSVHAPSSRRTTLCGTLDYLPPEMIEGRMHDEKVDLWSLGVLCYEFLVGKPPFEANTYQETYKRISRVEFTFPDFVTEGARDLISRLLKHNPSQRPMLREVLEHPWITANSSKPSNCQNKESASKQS

[8] = molecular target: Platelet-derived growth factor receptor beta (Homo sapiens, UniProt P09619)
Chain of Platelet-derived growth factor receptor beta (P09619 whole entry): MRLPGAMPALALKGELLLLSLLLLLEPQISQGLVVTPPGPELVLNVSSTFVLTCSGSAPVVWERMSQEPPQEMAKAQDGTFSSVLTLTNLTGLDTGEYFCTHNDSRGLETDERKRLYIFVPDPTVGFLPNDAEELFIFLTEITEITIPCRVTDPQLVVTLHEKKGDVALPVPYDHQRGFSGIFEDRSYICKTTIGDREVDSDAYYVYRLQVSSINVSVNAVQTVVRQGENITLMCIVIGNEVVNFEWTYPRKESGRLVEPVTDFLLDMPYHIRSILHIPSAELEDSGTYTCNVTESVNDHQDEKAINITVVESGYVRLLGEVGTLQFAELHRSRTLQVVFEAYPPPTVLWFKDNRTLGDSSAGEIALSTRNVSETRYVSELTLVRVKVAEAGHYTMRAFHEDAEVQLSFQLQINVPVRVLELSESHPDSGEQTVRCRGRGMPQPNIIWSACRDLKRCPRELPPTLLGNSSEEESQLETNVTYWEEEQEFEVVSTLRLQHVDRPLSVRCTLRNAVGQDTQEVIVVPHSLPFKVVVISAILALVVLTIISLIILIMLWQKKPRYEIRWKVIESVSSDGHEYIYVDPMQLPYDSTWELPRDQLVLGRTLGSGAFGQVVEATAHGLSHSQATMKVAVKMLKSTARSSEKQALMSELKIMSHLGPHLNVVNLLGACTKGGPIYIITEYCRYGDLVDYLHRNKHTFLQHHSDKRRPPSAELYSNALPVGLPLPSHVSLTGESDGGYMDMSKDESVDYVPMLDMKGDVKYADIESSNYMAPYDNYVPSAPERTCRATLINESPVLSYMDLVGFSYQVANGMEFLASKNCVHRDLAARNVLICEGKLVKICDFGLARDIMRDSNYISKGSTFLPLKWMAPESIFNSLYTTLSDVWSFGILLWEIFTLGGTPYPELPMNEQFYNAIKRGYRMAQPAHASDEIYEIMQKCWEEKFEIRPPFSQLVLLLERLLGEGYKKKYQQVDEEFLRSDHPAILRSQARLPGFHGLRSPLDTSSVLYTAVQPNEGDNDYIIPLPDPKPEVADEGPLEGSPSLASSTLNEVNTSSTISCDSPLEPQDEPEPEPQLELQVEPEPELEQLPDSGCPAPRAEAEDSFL
Further: in the data inactive means no Kd found up to 30 µM.

Chain of AP2-associated protein kinase 1 (Q2M2I8 whole entry): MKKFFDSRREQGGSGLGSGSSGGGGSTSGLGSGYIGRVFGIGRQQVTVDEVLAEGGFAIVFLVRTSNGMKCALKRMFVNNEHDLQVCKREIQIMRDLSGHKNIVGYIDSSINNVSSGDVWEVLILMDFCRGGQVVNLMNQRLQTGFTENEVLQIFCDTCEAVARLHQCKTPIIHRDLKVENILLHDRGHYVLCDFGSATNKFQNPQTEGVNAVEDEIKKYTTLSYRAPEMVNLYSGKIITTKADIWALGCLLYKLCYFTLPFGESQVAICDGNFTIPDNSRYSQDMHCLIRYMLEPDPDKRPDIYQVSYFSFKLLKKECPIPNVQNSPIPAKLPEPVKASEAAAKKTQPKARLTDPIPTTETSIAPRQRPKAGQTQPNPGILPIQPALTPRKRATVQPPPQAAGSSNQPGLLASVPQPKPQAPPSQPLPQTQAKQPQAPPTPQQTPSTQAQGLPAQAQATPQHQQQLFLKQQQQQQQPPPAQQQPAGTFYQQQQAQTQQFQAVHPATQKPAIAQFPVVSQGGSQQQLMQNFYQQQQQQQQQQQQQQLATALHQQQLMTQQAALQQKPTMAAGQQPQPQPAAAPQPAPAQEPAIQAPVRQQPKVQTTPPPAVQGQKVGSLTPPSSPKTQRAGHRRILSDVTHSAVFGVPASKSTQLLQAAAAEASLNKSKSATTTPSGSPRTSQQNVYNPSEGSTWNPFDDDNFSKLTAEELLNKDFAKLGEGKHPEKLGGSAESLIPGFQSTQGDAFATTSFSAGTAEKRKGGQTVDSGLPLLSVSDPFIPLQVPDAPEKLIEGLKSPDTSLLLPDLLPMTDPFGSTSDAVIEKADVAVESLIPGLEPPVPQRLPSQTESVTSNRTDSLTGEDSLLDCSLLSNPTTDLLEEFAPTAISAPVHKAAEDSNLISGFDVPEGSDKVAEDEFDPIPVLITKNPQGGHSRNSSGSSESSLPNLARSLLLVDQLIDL

Kd [1] | Kd [2] | Kd [3] | Kd [4] | Kd [5] | Kd [6] | Kd [7] | Kd (Aurora kinase A) | Kd [8] | Compound
> 30 µM (inactive) | > 30 µM (inactive) | 2.98 µM | > 30 µM (inactive) | > 30 µM (inactive) | > 30 µM (inactive) | > 30 µM (inactive) |  | > 30 µM (inactive) | Cc1csc(-c2nnc(Nc3ccc(Oc4ncccc4-c4ccnc(N)n4)cc3)c3ccccc23)c1 [AMG-900]
0.017 µM (active) | > 30 µM (inactive) | > 30 µM (inactive) | > 30 µM (inactive) | > 30 µM (inactive) | > 30 µM (inactive) |  |  | > 30 µM (inactive) | O=C(Nc1c[nH]nc1-c1nc2cc(CN3CCOCC3)ccc2[nH]1)NC1CC1 [AT-9283]
 | > 30 µM (inactive) | > 30 µM (inactive) | > 30 µM (inactive) | > 30 µM (inactive) |  |  |  |  | C[C@@H](Oc1cc(-n2cnc3ccc(CN4CCN(C)CC4)cc32)sc1C(N)=O)c1ccccc1C(F)(F)F [GSK-461364]
> 30 µM (inactive) | > 30 µM (inactive) | > 30 µM (inactive) | > 30 µM (inactive) | > 30 µM (inactive) | > 30 µM (inactive) |  |  | > 30 µM (inactive) | CCn1cc(-c2ccnc3[nH]c(-c4cccc(CN(C)C)c4)cc23)c(-c2ccc(NC(=O)N(C)C)cc2)n1 [GSK-1070916]
> 30 µM (inactive) | > 30 µM (inactive) | > 30 µM (inactive) | > 30 µM (inactive) | > 30 µM (inactive) |  |  |  |  | NC(=O)c1c(OCc2c(F)cc(Br)cc2F)nsc1NC(=O)NCCCCN1CCCC1 [OSI-632]
0.009 µM (active) | > 30 µM (inactive) | > 30 µM (inactive) | > 30 µM (inactive) | > 30 µM (inactive) |  | 2.41 µM (active) |  |  | CC(=O)NCC(=O)N1[C@@H]2CC[C@H]1c1ccc(Nc3ncc(C(F)(F)F)c(NC4CCC4)n3)cc12 [PF-03814735]
> 30 µM (inactive) | > 30 µM (inactive) | > 30 µM (inactive) | > 30 µM (inactive) | > 30 µM (inactive) | > 30 µM (inactive) |  |  | 4.59 µM (active) | CCS(=O)(=O)c1cccc(-c2cc(C(=O)NC3CCN(C)CC3)c(C)c3[nH]c4ncc(C)cc4c23)c1 [TAK-901]

Further lines, the molecule ahead of its results:

Compound | Kd [1] | Kd [2] | Kd [3] | Kd [4] | Kd [5] | Kd [6] | Kd [7] | Kd (Aurora kinase A) | Kd [8]
CCNC(=O)C#Cc1ccc2c(c1)NC(=O)/C2=C(\Nc1ccc(CN(C)C)cc1)c1ccccc1 | > 30 µM (inactive) | > 30 µM (inactive) | > 30 µM (inactive) | > 30 µM (inactive) | > 30 µM (inactive) | > 30 µM (inactive) | 0.799 µM (active) |  | 
Cc1nc2cc(-c3nn(C(C)C)c4ncnc(N)c34)ccc2o1 | > 30 µM (inactive) | > 30 µM (inactive) | > 30 µM (inactive) | > 30 µM (inactive) | > 30 µM (inactive) | > 30 µM (inactive) | > 30 µM (inactive) | > 30 µM (inactive) | 
COc1cc(Nc2ncc3c(n2)-c2ccc(Cl)cc2C(c2c(F)cccc2OC)=NC3)ccc1C(=O)O [ALISERTIB] | > 30 µM (inactive) | > 30 µM (inactive) | > 30 µM (inactive) | > 30 µM (inactive) | > 30 µM (inactive) |  | > 30 µM (inactive) |  | > 30 µM (inactive)
CNC(=O)c1ccccc1Sc1ccc2c(/C=C/c3ccccn3)n[nH]c2c1 [AXITINIB] |  | > 30 µM (inactive) | > 30 µM (inactive) | > 30 µM (inactive) | > 30 µM (inactive) |  |  |  | 
CC(C)(C)c1nc(-c2cccc(NS(=O)(=O)c3c(F)cccc3F)c2F)c(-c2ccnc(N)n2)s1 [DABRAFENIB] | > 30 µM (inactive) | > 30 µM (inactive) | > 30 µM (inactive) | > 30 µM (inactive) | > 30 µM (inactive) |  |  | > 30 µM (inactive) | 
CNC(=O)c1nn(C)c2c1C(C)(C)Cc1cnc(Nc3ccc(N4CCN(C)CC4)cc3)nc1-2 [MILCICLIB] | 7.41 µM (active) | > 30 µM (inactive) | > 30 µM (inactive) | > 30 µM (inactive) | > 30 µM (inactive) | > 30 µM (inactive) | > 30 µM (inactive) | > 30 µM (inactive) | 
Cc1[nH]c(/C=C2\C(=O)Nc3ccccc32)c(C)c1CCC(=O)O [ORANTINIB] | 1.17 µM (active) | > 30 µM (inactive) | > 30 µM (inactive) | > 30 µM (inactive) | > 30 µM (inactive) |  |  |  | 0.744 µM (active)
CO[C@H]1C[C@@H]2CC[C@@H](C)[C@@](O)(O2)C(=O)C(=O)N2CCCC[C@H]2C(=O)O[C@H]([C@H](C)C[C@@H]2CC[C@@H](OP(C)(C)=O)[C@H](OC)C2)CC(=O)[C@H](C)/C=C(\C)[C@@H](O)[C@@H](OC)C(=O)[C@H](C)C[C@H](C)/C=C/C=C/C=C/1C [RIDAFOROLIMUS] | > 30 µM (inactive) |  | > 30 µM (inactive) | > 30 µM (inactive) | > 30 µM (inactive) | > 30 µM (inactive) | > 30 µM (inactive) | > 30 µM (inactive) | > 30 µM (inactive)
N#CC[C@H](C1CCCC1)n1cc(-c2ncnc3[nH]ccc23)cn1 [RUXOLITINIB] |  | > 30 µM (inactive) | > 30 µM (inactive) | > 30 µM (inactive) | > 30 µM (inactive) |  |  |  | 
CN1CCN(CCOc2cc(OC3CCOCC3)c3c(Nc4c(Cl)ccc5c4OCO5)ncnc3c2)CC1 [SARACATINIB] | > 30 µM (inactive) | > 30 µM (inactive) | > 30 µM (inactive) | > 30 µM (inactive) | > 30 µM (inactive) | > 30 µM (inactive) | > 30 µM (inactive) | > 30 µM (inactive) | 
O=C1NC(=O)[C@@H](c2cn3c4c(cccc24)CCC3)[C@@H]1c1c[nH]c2ccccc12 [TIVANTINIB] | > 30 µM (inactive) |  | > 30 µM (inactive) | > 30 µM (inactive) | > 30 µM (inactive) | > 30 µM (inactive) | > 30 µM (inactive) | > 30 µM (inactive) | > 30 µM (inactive)
C[C@@H](NC(=O)c1ncnc(N)c1Cl)c1ncc(C(=O)Nc2cc(C(F)(F)F)c(Cl)cn2)s1 [TOVORAFENIB] | > 30 µM (inactive) |  | > 30 µM (inactive) | > 30 µM (inactive) | > 30 µM (inactive) | > 30 µM (inactive) | > 30 µM (inactive) | > 30 µM (inactive) | 11.1 µM (active)
Cc1cc(Nc2ncnc3ccc(NC4=NC(C)(C)CO4)cc23)ccc1Oc1ccn2ncnc2c1 [TUCATINIB] | > 30 µM (inactive) |  | > 30 µM (inactive) | > 30 µM (inactive) | > 30 µM (inactive) | > 30 µM (inactive) | > 30 µM (inactive) | > 30 µM (inactive) | > 30 µM (inactive)
